Assay results from patent US20110033525A1, “Diterpene Glycosides as Natural Solubilizers” (priority 2008, published 2011).
Values after ≈ are worked out from the molar mass of the structure shown.

What was measured:
physchem = settings: for Aqueous drug concentration, 10% RUBUSOSIDE: Table 8, 10% w/v rubusoside (SFA) water solution; for solubility: 25 °C, thermodynamic from solid
Protocol: Solubility test methods: A compound with low solubility was selected and weighed into multiple centrifuge tubes. Each experimental tube received a known amount of the solubilizing agent being tested. The control tubes remained only with the compound. The same volume, 1 mL, unless otherwise indicated, of deionized and distilled water was added to each tube. Alternatively, a set percentage of water solutions containing the solubilizer to be tested (e.g., 5% w/v or 10% w/v) were prepared separately. In these cases, the solubilizer-water solutions were added directly to the tubes containing the low-solubility compound. The tubes were then vortexed briefly and then sonicated for 60 min at temperature of 50° C. unless otherwise indicated. After sonication, the tubes were placed on an orbital shaker at a speed of 80 rpm in an incubator set at 25° C. for at least 24 hr. The tubes were then centrifuged at 4000 rpm for 10 min. The supernatant solution was passed through a 0.2 μm or 0.45 μm filter and analyzed for the concentration of the low-solubility compound, and sometimes the solubilizing compound, by HPLC or UV-Vis spectrophotometer.
The system was computer controlled, and the results were analyzed using Empower software. Calibrations curves were constructed using known concentrations of the compounds and were used to quantify the concentrations of the compounds dissolved in solution. A more complete description of the HPLC procedure for some of the diterpene glycosides is found in G. Chou et al., “Quantitative and fingerprint analyses of Chinese sweet tea plant (Rubus suavissimus S. Lee),” J. Agric. Food Chem., vol.
The ratio of peak areas was used to calculate the increase in water solubility in the absence or presence of solubilizers.

[1] = cited from earlier work; for Aqueous drug concentration, AQUEOUS SOLUTION: Table 8, without rubusoside, same values as published ones of Table 1
[2] = aqueous with cosolvent or surfactant or cyclodextrin, Solubility in water with solubilizer

Row | SMILES | Solubility increase factor (physchem) | solubility (physchem; [2]) [µg/mL] | Concentration in water without rubusoside (control sample) (physchem) | also measured
1 | Cc1c(C)c2c(c(C)c1O)CC[C@@](C)(CCC[C@H](C)CCC[C@H](C)CCCC(C)C)O2 [Alpha-Tocopherol (VE), Alpha-tocopherol] | Many |  |  | Solubility in water with solubilizer (physchem): 13,250 μg/mL
2 | C[C@@H]1[C@H](O)[C@@H](C)/C=C/C=C/C=C/C=C/C=C/C=C/C=C/[C@H](O[C@@H]2O[C@H](C)[C@@H](O)[C@H](N)[C@@H]2O)C[C@@H]2O[C@](O)(C[C@@H](O)C[C@@H](O)[C@H](O)CC[C@@H](O)C[C@@H](O)CC(=O)O[C@H]1C)C[C@H](O)[C@H]2C(=O)O [Amphotericin B, reference compound] |  |  |  | Aqueous drug concentration, 10% RUBUSOSIDE (physchem): 200 µg/mL; Aqueous drug concentration, AQUEOUS SOLUTION [1]: 82 µg/mL
3 | COC1=C(OC)C(=O)C(C/C=C(\C)CC/C=C(\C)CC/C=C(\C)CC/C=C(\C)CC/C=C(\C)CC/C=C(\C)CC/C=C(\C)CC/C=C(\C)CC/C=C(\C)CCC=C(C)C)=C(C)C1=O [Coenzyme Q10] | 1110 | 111 (≈ 129 µM) |  | Solubility in water with solubilizer (physchem): 111 µg/mL
4 | C[C@@H]1[C@H](O)[C@@H](C)/C=C/C=C/CC/C=C/C=C/C=C/C=C/C(O[C@H]2O[C@H](C)[C@@H](O)[C@H](N)[C@@H]2O)CC2O[C@](O)(CC(O)C(O)CCC(O)CC(O)CC(O)CC(=O)O[C@H]1C)CC(O)C2C(=O)O (stereo partly drawn) [Nystatin, reference compound] |  |  |  | Aqueous drug concentration, 10% RUBUSOSIDE (physchem): 1,100 μg/ml; Aqueous drug concentration, AQUEOUS SOLUTION [1]: 66 µg/mL
5 | COc1cc([C@@H]2c3cc4c(cc3[C@H](O)[C@H]3COC(=O)[C@H]23)OCO4)cc(OC)c1OC [Podophyllotoxin, reference compound] |  |  |  | solubility (physchem; aqueous with cosolvent or surfactant or cyclodextrin): 919 µg/mL (≈ 2220 µM); Water solubility in words ([1]; The Merck Index (1996) or Material Safety Data Sheets): nearly insoluble
6 | CC(C)c1cccc(C(C)C)c1O [Propofol, reference compound] | 74 | 11700 (≈ 65600 µM) | no measurable propofol | 

Further lines, with some results ahead:

Row | Solubility increase factor (physchem) | solubility (physchem; [2]) [µg/mL] | Concentration in water without rubusoside (control sample) (physchem) | SMILES | also measured
7 | 5 | 280 (≈ 992 µM) |  | C[C@@H]1CC[C@H]2[C@@H](C)C(=O)O[C@@H]3O[C@@]4(C)CC[C@@H]1[C@]32OO4 [Artemisinin, reference compound] | 
8 | 86 |  | 57 µg/mL | COc1cc(CNC(=O)CCCC/C=C/C(C)C)ccc1O [Capsaicin, reference compound] | Concentration dissolved in rubusoside water solution (physchem; 20 mg rubusoside in 1 ml water): 589 µg/mL; solubility (physchem; aqueous with cosolvent or surfactant or cyclodextrin, Solubility in water with solubilizer, natural solubilizer (rubusoside) 10% w/v (100 mg in 1 ml)): 4920 µg/mL (≈ 16100 µM); solubility (physchem; water, Solubility): 57 µg/mL (≈ 187 µM)
9 | Many | 488 (≈ 1280 µM) | not detected | Cc1ccc(-c2cc(C(F)(F)F)nn2-c2ccc(S(N)(=O)=O)cc2)cc1 [Celecoxib, reference compound] | 
10 | 11 | 5330 (≈ 7270 µM) |  | CC[C@H]1OC(=O)[C@H](C)[C@@H](O[C@H]2C[C@@](C)(OC)[C@@H](O)[C@H](C)O2)[C@H](C)[C@@H](O[C@@H]2O[C@H](C)C[C@H](N(C)C)[C@H]2O)[C@](C)(O)C[C@@H](C)C(=O)[C@H](C)[C@@H](O)[C@]1(C)O [Erythromycin, reference compound] | 
11 | 9.6 | 106000 (≈ 623000 µM) |  | O=C(O)c1cc(O)c(O)c(O)c1 [Gallic acid] | Amount dissolved in 1 ml water (physchem; 400 mg rubusoside, 25° C.): 106 mg; Amount dissolved in 1 ml water (physchem; 800 mg rubusoside, 37° C.): 212 mg; Fold increase over amount dissolved in plain water (physchem; 800 mg rubusoside, 37° C.): 19.3 fold
12 | Many |  | not detected | CCC(C)n1ncn(-c2ccc(N3CCN(c4ccc(OCC5COC(Cn6cncn6)(c6ccc(Cl)cc6Cl)O5)cc4)CC3)cc2)c1=O (stereo not drawn) [Itraconazole, reference compound] | Solubility in water with solubilizer (physchem): 21 µg/mL
13 | Many | 150 (≈ 311 µM) |  | COc1cc(C2Oc3cc([C@H]4Oc5cc(O)cc(O)c5C(=O)[C@@H]4O)ccc3OC2CO)ccc1O (stereo partly drawn) [Silybin (Silibinin), Silybin] | 
